Data as given in patent US20220273765A1, “TOPICAL FORMULATION” (Follicum AB, priority 2019, published 2022).
Where two headings read alike, the source gives them in different places. One block for each compound: values may come before it. No end group written: not given here.

Tests used:
[1] = system: C57BL/6 mice in stable telogen phase; experiment: Hair growth promotion efficacy in C57BL/6 mouse model by topical route; assay type: in vivo; details: 5% solution, 50 μL/cm2 topically twice daily, 4 weeks + 1 week observation
Method: C57Bl6 mice in stable telogen phase (age 6-9 weeks) were carefully clipped. Topical formulation of FOL-005 at three different strengths and placebo was applied at the clipped area once daily, 5 days per week until day 26. For comparison Minoxidil was administered to one group twice daily, 5 days per week until day 26.
The present study was conducted to evaluate the hair growth promotion efficacy of FOL-005 in C57BL/6 mouse model by topical route of administration. Male C57BL/6 mice in stable telogen phase (resting phase) of hair growth cycle were used. The hair on the dorsal back of the animals was clipped and the area was treated with FOL-005 topical formulation, placebo formulation or commercially available Minoxidil 5%.
Three formulations of FOL-005 (High dose—0.5%, Medium dose—0.05% and Low dose—0.005%) along with placebo were screened for hair growth promotion efficacy by applying 50 μL/cm2 on the dorsal clipped skin of animals in the respective groups. The application regimen was total of 4 weeks (5 days/week) followed by 1 week of observation period. […] After completion of observation period, it was observed that FOL-005 formulation led to hair growth promotion efficacy in a dose response manner. […] Visual melanogenesis was also observed in the peeled skin of 3/7 animals, 2/7 animals and 1/7 animal in the High, Medium and Low dose respectively. […]

[2] = Solubility of FOL-005 in vehicle excipients and artificial sebum (HPLC); assay type: physicochemical
Method: The testing was performed by charging 0.1% (w/w) of FOL-005 together with 99.90% excipient. […] The mixtures were stirred with magnetic stirrer for 2 hours. If particles of FOL-005 remained, the mixture was centrifuged at 14000 rpm or 10000 rpm (artificial sebum) for 5 minutes and the supernatant was withdrawn for analysis. The concentration of FOL-005 was determined by HPLC analysis in all batches.

[3] = sodium salt, in PBS buffer pH 7.4, room temperature

Compound: Nc1cc(N2CCCCC2)nc(N)[n+]1[O-] [Minoxidil]
Anagen induction followed by hair growth [1]: 4/5
Visual melanogenesis in the peeled skin [1]: 4/5

solubility at 2 h ([2]; 0.5% Cithrol in paraffin oil, sodium salt, in 0.5% Cithrol in paraffin oil, room temperature, read-out: FOL-005 solubility): 10 µg/mL
solubility at 2 h ([2]; 10% glucose in water, in 10% Glucose in water, room temperature, read-out: FOL-005 solubility): > 1010 µg/mL
solubility of FOL-005 in 10% glucose solution ([2]; 10% glucose solution): above 4.38 % (w/w)
solubility at 2 h ([2]; 10% mannitol in water, in 10% Mannitol in water, room temperature, read-out: FOL-005 solubility): > 1040 µg/mL
solubility at 2 h ([2]; 10% sucrose in water, in 10% Sucrose in water, room temperature, read-out: FOL-005 solubility): > 1040 µg/mL
solubility at 2 h ([2]; 30% glucose in water, in 30% Glucose in water, room temperature, read-out: FOL-005 solubility): > 1070 µg/mL
solubility at 2 h ([2]; 30% sucrose in water, in 30% Sucrose in water, room temperature, read-out: FOL-005 solubility): > 1040 µg/mL
solubility at 2 h ([2]; PBS buffer, pH 7.4, sodium salt, in PBS buffer pH 7.4, room temperature, read-out: FOL-005 solubility): > 1000 µg/mL
solubility at 2 h ([2]; artificial sebum, sodium salt, in artificial sebum, 37° C., read-out: FOL-005 solubility): 270 µg/mL
Observation ([2]; in 10% Glucose in water, room temperature): soluble
Observation ([2]; in 10% Mannitol in water, room temperature): soluble
Observation ([2]; in 10% Sucrose in water, room temperature): soluble
Observation ([2]; in 30% Glucose in water, room temperature): soluble
Observation ([2]; in 30% Sucrose in water, room temperature): soluble
Observation ([2]; in lactic acid, room temperature): soluble
solubility at 2 h ([2]; lactic acid, in lactic acid, room temperature, read-out: FOL-005 solubility): > 1170 µg/mL
FOL-005 solubility [2, 3]: >980 µg/mL
Observation [2, 3]: soluble
solubility at 2 h ([2]; sugar solutions of glucose, mannitol and sucrose, sodium salt, sugar solutions of glucose, mannitol and sucrose, room temperature, read-out: solubility in sugar solutions): > 1000 µg/mL
Compound: VDTYDGDISVVYGLR [FOL-005]
